Experimental data as given in patent US12226417B2, “Fatty liver disease treatment using glucocorticoid and mineralocorticoid receptor antagonists” (Corcept Therapeutics, Inc., priority 2014, dated 2025).

Columns and labels:
[1] = target: T1, glucocorticoid receptor (GR) (Homo sapiens, UniProt P04150); experiment: GR reporter gene assay using SW1353/MMTV-5 cells; type: cell-based
T1 construct: contains endogenous glucocorticoid receptors; endogenous in cells; host or cells: SW1353/MMTV-5 (human chondrosarcoma, stably transfected with pMAMneo-Luc reporter)
T1 sequence (P04150 1-777): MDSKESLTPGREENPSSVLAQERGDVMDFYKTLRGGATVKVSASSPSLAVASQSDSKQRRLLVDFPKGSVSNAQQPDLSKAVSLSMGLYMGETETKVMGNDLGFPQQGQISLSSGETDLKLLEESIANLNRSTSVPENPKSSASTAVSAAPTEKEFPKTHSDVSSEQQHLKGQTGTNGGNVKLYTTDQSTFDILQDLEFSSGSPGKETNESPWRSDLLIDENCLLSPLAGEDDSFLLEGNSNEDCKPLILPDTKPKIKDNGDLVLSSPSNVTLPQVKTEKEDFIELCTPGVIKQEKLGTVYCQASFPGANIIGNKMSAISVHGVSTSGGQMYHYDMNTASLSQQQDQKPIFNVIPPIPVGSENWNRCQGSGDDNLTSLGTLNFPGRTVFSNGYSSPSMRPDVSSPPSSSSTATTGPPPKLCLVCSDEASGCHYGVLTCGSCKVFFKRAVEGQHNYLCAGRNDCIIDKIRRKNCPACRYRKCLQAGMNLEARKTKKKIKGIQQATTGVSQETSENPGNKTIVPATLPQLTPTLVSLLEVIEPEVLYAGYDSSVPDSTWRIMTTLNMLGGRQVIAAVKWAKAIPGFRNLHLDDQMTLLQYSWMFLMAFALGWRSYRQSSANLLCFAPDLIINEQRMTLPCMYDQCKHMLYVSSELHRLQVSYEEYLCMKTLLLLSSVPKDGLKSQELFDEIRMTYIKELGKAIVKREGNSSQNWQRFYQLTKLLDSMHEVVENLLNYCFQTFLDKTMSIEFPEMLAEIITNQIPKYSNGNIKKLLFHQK
Experimental: SW1353/MMTV-5 is an adherent human chondrosarcoma cell line that contains endogenous glucocorticoid receptors. It was transfected with a plasmid (pMAMneo-Luc) encoding firefly luciferase located behind a glucocorticoid-responsive element (GRE) derived from a viral promoter (long terminal repeat of mouse mammary tumor virus). A stable cell line SW1353/MMTV-5 was selected with geneticin, which was required to maintain this plasmid.
SW1353/MMTV-5 cells were distributed in 96-well plates and incubated in medium (without geneticin) for 24 hrs.

[2] = target: T2, mineralocorticoid receptor (MR) (Homo sapiens, UniProt P08235); experiment: MR reporter gene assay using T47D/MMTV-5 cells; type: cell-based
T2 construct: containing endogenous mineralocorticoid and progesterone receptors (PR); endogenous in cells; host or cells: T47D/MMTV-5 (human breast carcinoma, stably transfected with pMAMneo-Luc reporter)
T2 sequence (P08235 1-984): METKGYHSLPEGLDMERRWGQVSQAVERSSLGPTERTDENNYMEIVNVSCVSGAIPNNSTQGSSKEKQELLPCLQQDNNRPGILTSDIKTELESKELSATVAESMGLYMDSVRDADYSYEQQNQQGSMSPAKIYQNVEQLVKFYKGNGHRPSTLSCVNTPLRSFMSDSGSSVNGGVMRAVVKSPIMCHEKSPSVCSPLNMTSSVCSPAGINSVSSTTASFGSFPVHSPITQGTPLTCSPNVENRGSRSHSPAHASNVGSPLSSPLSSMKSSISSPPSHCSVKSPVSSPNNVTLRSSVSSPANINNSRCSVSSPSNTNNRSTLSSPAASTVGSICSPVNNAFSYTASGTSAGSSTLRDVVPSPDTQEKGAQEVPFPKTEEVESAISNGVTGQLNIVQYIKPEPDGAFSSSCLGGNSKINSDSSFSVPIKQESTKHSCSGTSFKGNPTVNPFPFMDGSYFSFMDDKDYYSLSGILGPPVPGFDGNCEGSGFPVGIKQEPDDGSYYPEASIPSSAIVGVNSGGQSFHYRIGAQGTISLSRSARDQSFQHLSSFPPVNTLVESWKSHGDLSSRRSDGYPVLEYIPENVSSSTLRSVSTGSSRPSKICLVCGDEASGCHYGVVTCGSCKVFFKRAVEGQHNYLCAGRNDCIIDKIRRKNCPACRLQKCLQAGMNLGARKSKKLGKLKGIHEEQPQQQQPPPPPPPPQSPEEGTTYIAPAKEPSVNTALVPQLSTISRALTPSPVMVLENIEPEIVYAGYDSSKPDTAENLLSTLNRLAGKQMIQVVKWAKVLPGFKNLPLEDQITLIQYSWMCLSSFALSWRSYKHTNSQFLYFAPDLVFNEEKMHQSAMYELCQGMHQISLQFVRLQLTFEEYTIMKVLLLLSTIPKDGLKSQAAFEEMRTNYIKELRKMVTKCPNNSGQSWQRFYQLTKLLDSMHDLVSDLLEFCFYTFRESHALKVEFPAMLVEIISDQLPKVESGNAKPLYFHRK
Experimental: (§1) As described for the SW1353 cell line above, T47D cells were transfected with the same pMAMneo-Luc plasmid, and stable lines were selected with geneticin.
(§2) T47D/MMTV-5 calls were distributed in 96-well plates (100 μl) in RPMI640 medium+10% charcoal stripped FCS. The cells were incubated for 24 hours in a CO2 oven.

[3] = target: T3, progesterone receptor (PR) (Homo sapiens, UniProt P06401); experiment: PR reporter gene assay using T47D/MMTV-5 cells; type: cell-based; details: antagonist mode, 50 nM progesterone
T3 construct: containing endogenous mineralocorticoid and progesterone receptors (PR); endogenous in cells; host or cells: T47D/MMTV-5 (human breast carcinoma, stably transfected with pMAMneo-Luc reporter)
T3 sequence (P06401 1-933): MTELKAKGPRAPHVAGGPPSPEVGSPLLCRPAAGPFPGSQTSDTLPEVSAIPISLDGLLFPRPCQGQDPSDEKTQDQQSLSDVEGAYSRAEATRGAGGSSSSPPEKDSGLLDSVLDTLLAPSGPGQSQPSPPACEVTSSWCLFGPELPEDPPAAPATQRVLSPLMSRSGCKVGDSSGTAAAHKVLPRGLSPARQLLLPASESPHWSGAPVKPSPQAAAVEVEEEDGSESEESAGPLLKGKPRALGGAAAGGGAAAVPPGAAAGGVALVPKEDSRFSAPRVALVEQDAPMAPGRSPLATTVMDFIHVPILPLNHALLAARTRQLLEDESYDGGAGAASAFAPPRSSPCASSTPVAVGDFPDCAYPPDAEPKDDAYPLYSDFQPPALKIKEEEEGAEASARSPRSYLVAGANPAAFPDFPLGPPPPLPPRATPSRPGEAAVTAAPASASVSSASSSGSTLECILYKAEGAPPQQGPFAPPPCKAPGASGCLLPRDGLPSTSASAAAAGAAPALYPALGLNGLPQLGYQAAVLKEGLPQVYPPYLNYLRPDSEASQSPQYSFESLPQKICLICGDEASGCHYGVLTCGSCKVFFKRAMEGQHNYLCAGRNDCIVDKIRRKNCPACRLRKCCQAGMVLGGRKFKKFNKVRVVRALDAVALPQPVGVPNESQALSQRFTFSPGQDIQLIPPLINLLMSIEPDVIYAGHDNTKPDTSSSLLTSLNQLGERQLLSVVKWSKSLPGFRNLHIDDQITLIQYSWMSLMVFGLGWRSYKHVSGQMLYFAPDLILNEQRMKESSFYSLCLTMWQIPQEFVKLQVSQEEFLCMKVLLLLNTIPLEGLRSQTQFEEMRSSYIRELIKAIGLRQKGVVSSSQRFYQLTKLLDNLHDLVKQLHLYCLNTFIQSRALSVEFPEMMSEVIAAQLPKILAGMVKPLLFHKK
Experimental: as §1, §2

[4] = system: C57B16/J mice given a high fat diet; experiment: Determination of liver lipids in mice fed a high fat diet (Oil Red O staining); type: in vivo, mouse; details: high fat diet (60% fat) three weeks; for fatty liver compared to the controls: 60 mg/kg/day in the food
Experimental: C57B16/J mice (n=8 per group) were given a high fat diet (60% fat) for three weeks and then sacrificed. Livers were collected and weighed. Liver slices were prepared and analysed for lipid levels by Oil Red 0 staining (FIGS. 1 and 3). One group of mice received Compound 1 mixed in the food (60 mg/kg/day) whilst another group of mice received vehicle mixed in the food. […] Compound 1 has GR antagonist activity and some MR antagonist activity.

[5] = target: T4, human recombinant GR (Homo sapiens, UniProt P04150); experiment: GR protein:protein interaction assay (DiscoveRx, CHO-K1, PGC1α); type: cell-based
T4 construct: β-galactosidase enzyme fragment (complementation partner); host or cells: CHO-K1
T4 sequence (P04150 1-777): T1 sequence (P04150 1-777)
Text: (§3) Protein:protein interaction assays were used to determine the ability of test compounds to act as antagonists of the glucocorticoid receptor and/or mineralocorticoid receptor. These assays utilize a commercial assay platform provided by DiscoveRx Corp. (Fremont, CA). DiscoveRx technology is based on β-galactosidase enzyme fragment complementation using a luminogenic substrate. Briefly, Chinese hamster ovary cells (CHO-K1) have been engineered to express either human recombinant GR or MR together with a steroid responsive coactivator protein (SRCP) called PGC1α (peroxisome proliferator activated receptor gamma coactivator lα). The assay measures the net outcome of GR or MR activation, i.e., nuclear translocation from the cytoplasm and interaction of the GR or MR with the coactivator PGC1α in the cell nucleus. The assay can be configured in both agonist and antagonist modes.
(§4) The cells (100 μl) were plated into 96 well plates and placed in a 37° C., 5% CO2 incubator for 24 hours. After removing the cells from the incubator, 5 μl of test compound or vehicle was added to each well, and the plates were incubated for 1 hour at 37° C., 5% CO2. […] The detection reagent was added, 55 μl per well, and the plates were incubated at room temperature in the dark without mixing. The plates were read for luminescence using an EnVision® plate reader (3 hour read).

[6] = target: T5, human recombinant MR (Homo sapiens, UniProt P08235); experiment: MR protein:protein interaction assay (DiscoveRx, CHO-K1, PGC1α); type: cell-based
T5 construct: β-galactosidase enzyme fragment (complementation partner); host or cells: CHO-K1
T5 sequence (P08235 1-984): T2 sequence (P08235 1-984)
Text: as §3
as §4, with “EnVision® (Perkin Elmer, Walthan, MA)” for “EnVision®”

Compound: O=c1[nH]c(=O)c(Cc2cccc(C(F)(F)F)c2)c([C@H]2CC[C@H](c3ccccc3)CC2)[nH]1 [Compound 1, (E)-6-(4-phenylcyclohexyl)-5-(3-trifluoromethylbenzyl)-1H-pyrimidine-2,4-dione]
- Ki [1]: 0.024 µM
- Ki [2]: 0.148 µM
- activity in progesterone receptor reporter gene assay [3]: inactive
- fatty liver compared to the controls [4]: did not induce fatty liver
- lipid droplets in livers (Oil Red O staining) ([4]; 60 mg/kg/day mixed in the food, versus vehicle control): no or low level of lipid droplets
- Ki [5]: 0.118 µM
- Ki [6]: 0.125 µM

Compound: CC#C[C@]1(O)CC[C@H]2[C@@H]3CCC4=CC(=O)CCC4=C3[C@@H](c3ccc(N(C)C)cc3)C[C@@]21C [mifepristone, reference compound]
- fatty liver compared to the controls [4]: increased fatty liver compared to the controls
